Data taken from article PMC12259270, “Sensory neuron–expressed FGF13 controls nociceptive signaling in diabetic neuropathy models” (The Journal of Clinical Investigation, 2025).
Residues, ends and D or L forms follow the SMILES beside them. *: point of attachment. Cbz = O=C(OCc1ccccc1)*; OtBu = CC(C)(C)O*

Key:
C57BL/6 mice [1] = assay: Thermal sensitivity (Hargreaves radiant heat) after intraplantar injection, mice without capsaicin; type: in vivo, mouse; details: WT mice, i.pl., radiant heat test
Procedure: (§1) Experiments were performed on 6- to 12-week-old male C57BL/6 mice (The Jackson Laboratory, Bar Harbor, ME) housed in the AAALAC-accredited facility at the University of Texas Medical Branch. Mice were group-housed with up to 5 mice per cage on a 12-to-12-hour light–dark cycle and had access to water and food ad libitum. All protocols were approved by the Institutional Animal Care and Use Committee (IACUC) at the University of Texas Medical Branch and in accordance with the National Institutes of Health (NIH) guidelines.
(§2) PW164 and ZL192 were dissolved in DMSO and saline in a ratio of 1:10. 0.1% capsaicin (10% ethanol, 10% Tween-20 in saline; Sigma-Aldrich). All the compounds were injected at the center of the hind paw. The control group received a DMSO-saline mixture. […]
(§3) AAV2 viral particles packaged by the University of North Carolina Gene Therapy Core Facility (viral titer ranging […]
Before intrathecal injections in the lumbar region, mice were maintained in an anesthetizing box with 2% isoflurane to induce unconsciousness. Six microliters of viral vector were gently injected into the CSF through a 30-gauge needle with a Hamilton syringe in the lumbar area between vertebrae L4 and L5 by gently gripping the iliac crest of the mouse and inserting the needle with an angle of 45°. The correct procedure was confirmed by the mouse’s tail reflexiv e flick. […]
Assessment of thermal sensitivity
Plantar tests for thermal sensitivity were performed using the Hargreaves apparatus (Ugo Basile, Italy) in mice that were either naïve or received i.p. injection of capsaicin or test compound. A thermal stimulus, generated by an infrared-focused light source, invisible to the rodent, was applied through a glass pane, to the plantar surface of the hind paw of the animal. The response to this stimulus was considered the withdrawal of the stimulated paw (lifting and licking). Light intensity was set up at 30% and the cut-off at the 20 s. The final value of thermal withdrawal latency, expressed in seconds, was the average value of three consecutive trials. […]

C57BL/6 mice [2] = assay: Capsaicin-induced mechanical hypersensitivity (von Frey); type: in vivo, mouse; parameters: LVF Mean / HVF Mean / MECHANICAL LVF / MECHANICAL HVF: unit not given here
From the text: FGF13 is a neuronal gene ubiquitously transcribed in DRG neuronal subtypes ([43]–[46]). To investigate neuronal subtype enrichment of the FGF13 transcript, we examined a gene panel including FGF13, SCN9A, and several marker genes in mouse single-cell transcriptomic data (Supplemental Figure 10) ([43]–[46]). […] Critically, putative silent nociceptors marked by somatostatin (SST), and the nicotinic cholinergic receptor α-3 subunit (CHRNA3) contribute to development of inflammatory mechanical hyperalgesia ([47]). […] We next determined if PW164 modulation of the FGF13/Nav1.7 complex could suppress nociceptive behaviors in WT mice. We tested whether intraplantar (i.pl.) injection (5 μL) of PW164 altered hind paw withdrawal in response to low or high intensity von Frey filament (LVF or HVF, respectively) mechanical stimulation (Figure 3A). […] Next, we evaluated PW164’s effect on mechanical and thermal hindpaw sensitivity in capsaicin-induced nociceptive hypersensitivity models. […] Next, we performed in vivo target validation in WT mice that received an intrathecal (i.t.) injection in L5 of AAV2-shFGF13 (6 μL, viral titers 1 × 10^12 vector genomes (vg)/mL); a control group received an equal number of AAV2-shCTRL particles (Figure 3C).
as §1, §2
Bupivacaine was prepared from a 1:2 dilution with sterile 0.9% saline and locally injected in the center of the paw at 7 mg/ml.
as §3
Before intrathecal injections in the lumbar region, mice were maintained in an anesthetizing box with 2% isoflurane to induce unconsciousness. Six microliters of viral vector were gently injected into the CSF through a 30-gauge needle with a Hamilton syringe in the lumbar area between vertebrae L4 and L5 by gently gripping the iliac crest of the mouse and inserting the needle with an angle of 45°. The correct procedure was confirmed by the mouse’s tail reflexiv e flick.
Assessment of mechanical sensitivity
Mechanical sensitivity was assessed using von Frey filaments (VFF 0.1g and 1.0 g force) in mice that were either naïve or received intraplantar (i.p.) injection of capsaicin. VFFs were applied at the injection site (capsaicin or […]

[3] = Cap + PW164 0.07 mg/mL, Time (h) 0
[4] = Cap + PW164 0.07 mg/mL, Time (h) 0.5
[5] = Cap + PW164 0.07 mg/mL, Time (h) 1
[6] = Cap + PW164 0.07 mg/mL, Time (h) 1.5
[7] = Cap + PW164 0.07 mg/mL, Time (h) 2
[8] = Cap + PW164 0.07 mg/mL, Time (h) 3
[9] = Cap + PW164 0.21 mg/mL, Time (h) 0
[10] = Cap + PW164 0.21 mg/mL, Time (h) 0.5
[11] = Cap + PW164 0.21 mg/mL, Time (h) 1
[12] = Cap + PW164 0.21 mg/mL, Time (h) 1.5
[13] = Cap + PW164 0.21 mg/mL, Time (h) 2
[14] = Cap + PW164 0.21 mg/mL, Time (h) 3
[15] = Cap + PW164 0.7 mg/mL, Time (h) 0
[16] = Cap + PW164 0.7 mg/mL, Time (h) 0.5
[17] = Cap + PW164 0.7 mg/mL, Time (h) 1
[18] = Cap + PW164 0.7 mg/mL, Time (h) 1.5
[19] = Cap + PW164 0.7 mg/mL, Time (h) 2
[20] = Cap + PW164 0.7 mg/mL, Time (h) 3
[21] = Figure 3 D, AAV2-Control mice after Cap, 0.h min PW164
[22] = Figure 3 D, AAV2-Control mice after Cap, 1h PW164
[23] = Figure 3 D, AAV2-Control mice after Cap, 2h PW164
[24] = Figure 3 D, AAv2-shFGF13 mice after Cap, 0.h min PW164
[25] = Figure 3 D, AAv2-shFGF13 mice after Cap, 1h PW164
[26] = Figure 3 D, AAv2-shFGF13 mice after Cap, 2h PW164

For `COC(=O)[C@@H](NC(=O)[C@H](CCC(=O)OC(C)(C)C)NC(=O)[C@H](CC(C)C)NC(=O)[C@@H]1CCCN1C(=O)OCc1ccccc1)C(C)C` [PW164] (Cbz-PLE(OtBu)V-OMe), the “thermal hindpaw withdrawal thresholds (latency), normal sensitivity” value (C57BL/6 mice [1]) was “Neither did PW164 affect thermal hindpaw withdrawal thresholds”, the “HVF Mean” value (C57BL/6 mice [2]; [3]) was 50 and the “LVF Mean” value (C57BL/6 mice [2]; [3]) was 0. For the same compound, the “HVF Mean” value (C57BL/6 mice [2]; [4]) was 100, the “LVF Mean” value (C57BL/6 mice [2]; [4]) was 62.5 and the “HVF Mean” value (C57BL/6 mice [2]; [5]) was 97.5. For the same compound, the “LVF Mean” value (C57BL/6 mice [2]; [5]) was 62.5, the “HVF Mean” value (C57BL/6 mice [2]; [6]) was 85 and the “LVF Mean” value (C57BL/6 mice [2]; [6]) was 45. The “HVF Mean” value (C57BL/6 mice [2]; [7]) was 87.5, the “LVF Mean” value (C57BL/6 mice [2]; [7]) was 35 and the “HVF Mean” value (C57BL/6 mice [2]; [8]) was 83.75. The “LVF Mean” value (C57BL/6 mice [2]; [8]) was 32.5, the “HVF Mean” value (C57BL/6 mice [2]; [9]) was 51.6667 and the “LVF Mean” value (C57BL/6 mice [2]; [9]) was 0. The “HVF Mean” value (C57BL/6 mice [2]; [10]) was 100, the “LVF Mean” value (C57BL/6 mice [2]; [10]) was 60 and the “HVF Mean” value (C57BL/6 mice [2]; [11]) was 78.3333. For the same compound, the “LVF Mean” value (C57BL/6 mice [2]; [11]) was 40, the “HVF Mean” value (C57BL/6 mice [2]; [12]) was 83.3333 and the “LVF Mean” value (C57BL/6 mice [2]; [12]) was 35. The “HVF Mean” value (C57BL/6 mice [2]; [13]) was 90, the “LVF Mean” value (C57BL/6 mice [2]; [13]) was 30 and the “HVF Mean” value (C57BL/6 mice [2]; [14]) was 98.3333. For the same compound, the “LVF Mean” value (C57BL/6 mice [2]; [14]) was 38.3333, the “HVF Mean” value (C57BL/6 mice [2]; [15]) was 50 and the “LVF Mean” value (C57BL/6 mice [2]; [15]) was 0. The “HVF Mean” value (C57BL/6 mice [2]; [16]) was 100, the “LVF Mean” value (C57BL/6 mice [2]; [16]) was 61.6667 and the “HVF Mean” value (C57BL/6 mice [2]; Cap + PW164 0.7 mg/mL, Time (h) 0.75) was 80. For the same compound, the “HVF Mean” value (C57BL/6 mice [2]; [17]) was 63.3333, the “LVF Mean” value (C57BL/6 mice [2]; [17]) was 20 and the “HVF Mean” value (C57BL/6 mice [2]; [18]) was 63.3333. For the same compound, the “LVF Mean” value (C57BL/6 mice [2]; [18]) was 13.3333, the “HVF Mean” value (C57BL/6 mice [2]; [19]) was 68.3333 and the “LVF Mean” value (C57BL/6 mice [2]; [19]) was 21.6667. For the same compound, the “HVF Mean” value (C57BL/6 mice [2]; [20]) was 86.6667, the “LVF Mean” value (C57BL/6 mice [2]; [20]) was 31.6667 and the “HVF Mean” value (C57BL/6 mice [2]; [21]) was 43.3333. The “LVF Mean” value (C57BL/6 mice [2]; [21]) was 14.17, the “HVF Mean” value (C57BL/6 mice [2]; [22]) was 50 and the “LVF Mean” value (C57BL/6 mice [2]; [22]) was 13.33. The “HVF Mean” value (C57BL/6 mice [2]; [23]) was 45.8333, the “LVF Mean” value (C57BL/6 mice [2]; [23]) was 9.17 and the “HVF Mean” value (C57BL/6 mice [2]; [24]) was 41.5152. For the same compound, the “LVF Mean” value (C57BL/6 mice [2]; [24]) was 9.09, the “HVF Mean” value (C57BL/6 mice [2]; [25]) was 37.9091 and the “LVF Mean” value (C57BL/6 mice [2]; [25]) was 9.39. The “HVF Mean” value (C57BL/6 mice [2]; [26]) was 41.2121, the “LVF Mean” value (C57BL/6 mice [2]; [26]) was 11.52 and the “duration of analgesic effect” value (C57BL/6 mice [2]; PW164 0.7 mg/mL i.pl., naive and AAV2-shCTRL mice after capsaicin) was “at least 2 hours”. The “mechanical sensitivity in AAV2-shFGF13 mice after capsaicin” value (C57BL/6 mice [2]; PW164 5 μL, 0.7mg/mL hind paw) was “did not further modify”, the capsaicin-induced mechanical sensitivity (C57BL/6 mice [2]; PW164 at the capsaicin injection site, 30 minutes post-capsaicin) was “inhibited” and the “lowest concentration with dose-dependent antihyperalgesic effect” value (C57BL/6 mice [2]; i.pl., capsaicin model) was 0.21 mg/mL.
